Reference: publication PMC10692721, “Drug discovery for heart failure targeting myosin-binding protein C” (The Journal of Biological Chemistry, 2023)
Where a name gives a salt, the structure may show the parent alone. *1 amine or outer side, *2 acyl side, *3 side chain or, on linkers, in order; H or OH if unused. Where a SMILES comes first, the peptide text is derived from it. Bridges are numbered along the chain shown (N, C = ends). [ ]: non-standard residue; d: D form. The star is where a group is joined. pTerphenylCO(4''-OnC5H11) = CCCCCOc1ccc(-c2ccc(-c3ccc(C(=O)*)cc3)cc2)cc1; Orn(4R-OH,5R-OH) = O=C([C@H](C[C@@H](O)[C@@H](O)N[*:3])N[*:1])[*:2]; hTyr(3S-OH,4S-OH) = N[C@H](C(=O)O)[C@H](O)[C@@H](O)c1ccc(O)cc1; Pro(3S-OH,4S-Me) = C[C@H]1CN[C@H](C(=O)O)[C@H]1O; Hyp = O=C(O)[C@@H]1C[C@@H](O)CN1

Assays:
TMR-cC0-C2 = assay: Selleck library HTS, 532 nm excitation (FLT of TMR-cC0-C2 in presence of FMAL-actin); assay type: binding, human; details: for effect on FLT of TMR-cC0-C2 in the initial screen (in words): both replicates, actin present; for 532-nm Δτ, Repeat 1 / 532-nm Δτ, Repeat 2: initial screen, 30 μM compound; for 532-nm z-score (based on avg Δτ): robust z-score, hit threshold ±4, 30 μM compound
Procedure: (§1) Fluorescence lifetime (FLT) measurements were acquired using a high-throughput FLT plate reader (Fluorescence Innovations, Inc) ([14], [27]), provided by Photonic Pharma LLC. […] The observed waveforms were analyzed as described previously ([15], [28]).
(§2) In total, 50 nl of each solution was dispensed in DMSO using an automated Echo 550 acoustic liquid dispenser (Labcyte). Compounds were formatted into the assay plates, at a final concentration of 30 μM, with the first two and second to last columns loaded with DMSO only (compound-free controls). In the final column, 30 μM of suramin was loaded as a positive control (tool compound). These assay plates were then heat-sealed using a PlateLoc Thermal Microplate Sealer (Agilent Technologies) and stored at −20 °C. Before screening, compound plates were equilibrated to room temperature (∼25 °C). […] Plates were incubated at room temperature for 60 min before recording the data with the fluorescence lifetime plate reader.
Hits that exceeded the z-score hit criteria in the donor-only screen were excluded from consideration. To remove compounds with confounding fluorescence properties, a similarity index (SI, specifically the cosine distance, Equation 5) was computed using data from the SUPR instrument by comparing a region (500–540 nm) of the donor-only spectrum (I^(a)) for each well to that of the plate-wide average DMSO spectrum (I^(b)) in the same wavelength band ([29]). Compounds that exceeded an SI robust z-score of 4 were deemed likely fluorescent compounds and removed from consideration.(5) SI=1−∑Ii(a).Ii(b)/∑Ii(a).Ii(a)∑Ii(b).Ii(b)

[1] = tested on: FMAL-actin plus TMR-cC0-C2; assay: Selleck library HTS, 473 nm excitation (FLT of FMAL-actin with TMR-cC0-C2, FLT-FRET); assay type: binding, human; details: for 473-nm Δτ, Repeat 1 / 473-nm Δτ, Repeat 2: initial screen, 30 μM compound; for 473-nm z-score (based on avg Δτ): robust z-score, hit threshold ±4, 30 μM compound
Procedure: as §1, §2
After fitting the waveforms with a single exponential decay to quantify donor FLT, the change in FLT (Δτ) was computed by performing a moving median subtraction in the order the plate was scanned with a window size of half a plate row […]. The reasons for this are twofold. Firstly, plate gradients are often observed due to the heating of the digitizer during acquisition.
To account for the necessity to correct for plate gradients in the computation of E, the median τDMSO prior to the application of the moving median correction was added to each well’s Δτ value to recover a rescaled value of τ.

[2] = tested on: TMR-cC0-C2 (C0-C2 fragment of human cMyBP-C); assay: FLT-TMR concentration-response assay (FLT of TMR on cC0-C2, no actin); assay type: binding; details: for effect on FLT of TMR-cC0-C2 (in words): concentration-response, no actin; for cC0-C2/cC0-C2#P (ratio of FLT changes) / cC0-C2 FLT change (% change from DMSO, FLT of TMR-MyBP-C): 60 μM compound
Procedure: (§3) Compounds identified as initial hits were further examined to determine the concentration–response curves for seven conditions ([1]): FMAL-actin alone identified actin-binding compounds that alter the FLT of FMAL-actin ([2]).
as §1
(§4) The primary hits were dissolved in DMSO to make a 10 mM stock solution, which was serially diluted in 96-well mother plates. Hits were screened at eight concentrations (0.5–100 μM). […] Compounds (1 μl) were transferred from the mother plates into 384-well plates using a Mosquito HV liquid handler (TTP Labtech Ltd, Hertfordshire, UK). The same procedure of dispensing as for the pilot screening was applied in the concentration-response assays. Concentration dependence of the FLT-FRET (E/EDMSO) or FLT-TMR (Δτ) change data was fit to a Hill equation only under certain conditions to help guide the eye (Fig. 4).

[3] = tested on: TMR-fC1-C2 (C1-C2 of fast skeletal MyBP-C); assay: FLT-TMR concentration-response assay, fC1-C2; assay type: binding; details: 60 μM compound
Procedure: as §3, §1, §4

[4] = tested on: PKA-phosphorylated TMR-cC0-C2 (cC0-C2#P); assay: FLT-TMR concentration-response assay, PKA-phosphorylated cC0-C2; assay type: binding, human; details: 60 μM compound
Procedure: as §3, §1, §4

[5] = tested on: FMAL-actin/TMR-cC0-C2 interaction; assay: FLT-FRET concentration-response assay, FMAL-actin plus TMR-cC0-C2; assay type: binding, human; details: unphosphorylated cC0-C2
Procedure: as §3, §1, §4

[6] = listed as Erlotinib HCl (OSI-744)

Compound | 532-nm Δτ, Repeat 1 (TMR-cC0-C2) | 532-nm Δτ, Repeat 2 (TMR-cC0-C2) | 532-nm z-score (based on avg Δτ) (TMR-cC0-C2) | 473-nm Δτ, Repeat 1 [1] | 473-nm Δτ, Repeat 2 [1] | 473-nm z-score (based on avg Δτ) [1] | cC0-C2/cC0-C2#P (ratio of FLT changes) [2] | cC0-C2 FLT change (% change from DMSO, FLT of TMR-MyBP-C) [2] | cC0-C2/fC1-C2 (ratio of FLT changes) [3] | fC1-C2 FLT change (% change from DMSO, FLT of TMR-MyBP-C) [3] | cC0-C2#P FLT change (% change from DMSO, FLT of TMR-MyBP-C) [4] | further results
Oc1cccc2cccnc12 [8-Hydroxyquinoline] | -0.167 ns | -0.285 ns | -13.76 | -0.025 ns | -0.188 ns | -5.91 | – | – | – | – | – | effect on FLT of TMR-cC0-C2 in the initial screen (in words) (TMR-cC0-C2): strongly reduced; effect on FLT of TMR-cC0-C2 (in words) [2]: did not
CCCCCOc1ccc(-c2ccc(-c3ccc(C(=O)N[C@H]4C[C@@H](O)[C@@H](O)NC(=O)[C@@H]5[C@@H](O)[C@@H](C)CN5C(=O)[C@H]([C@@H](C)O)NC(=O)[C@H]([C@H](O)[C@@H](O)c5ccc(O)cc5)NC(=O)[C@@H]5C[C@@H](O)CN5C(=O)[C@H]([C@@H](C)O)NC4=O)cc3)cc2)cc1 [Anidulafungin] ({pTerphenylCO(4''-OnC5H11)}-[Orn(4R-OH,5R-OH)]T[Hyp][hTyr(3S-OH,4S-OH)]T[Pro(3S-OH,4S-Me)]; lactam 1-C) | 0.403 ns | 0.441 ns | 25.80 | 0.014 ns | 0.008 ns | 0.67 | 0.7 | 32.1% | 0.6 | 53.0% | 43.3% | –
COc1nc2ccc(Br)cc2cc1[C@@H](c1ccccc1)[C@@](O)(CCN(C)C)c1cccc2ccccc12.O=C(O)/C=C/C(=O)O [Bedaquiline fumarate] | -0.009 ns | -0.105 ns | -3.45 | -0.324 ns | -0.412 ns | -20.57 | 0.7 | −4.5% | 0.7 | 6.7% | −6.5% | –
CCCCNc1ccc(C(=O)OCCOCCOCCOCCOCCOCCOCCOCCOCCOC)cc1 [Benzonatate] | -0.101 ns | -0.124 ns | -6.82 | 0.108 ns | -0.001 ns | 3.05 | – | – | – | – | – | effect on FLT of TMR-cC0-C2 in the initial screen (in words) (TMR-cC0-C2): strongly reduced; effect on FLT of TMR-cC0-C2 (in words) [2]: did not
CCN(CC)CCCC(C)Nc1ccnc2cc(Cl)ccc12 (stereo not shown) [Chloroquine phosphate] | 0.311 ns | 0.320 ns | 19.30 | -0.042 ns | -0.069 ns | -3.07 | – | 2.5% | – | 1.9% | – | –
CCCCCCCCCCCCCCCC(=O)O[C@@H]1[C@@H](O)[C@@H](O)[C@@H]([C@H](NC(=O)[C@@H]2C[C@@H](CCC)CN2C)[C@H](C)Cl)O[C@@H]1SC.Cl [Clindamycin palmitate HCl] | -0.075 ns | -0.094 ns | -5.12 | -0.304 ns | -0.358 ns | -18.47 | – | −12.7% | – | – | – | –
C#Cc1cccc(Nc2ncnc3cc(OCCOC)c(OCCOC)cc23)c1 [Erlotinib HCl] | – | – | – | – | – | – | 0.8 | 11.8% | 1.1 | 11.1% | 13.9% | 532-nm Δτ, Repeat 1 (TMR-cC0-C2; [6]): 0.138 ns; 532-nm Δτ, Repeat 2 (TMR-cC0-C2; [6]): 0.020 ns; 532-nm z-score (based on avg Δτ) (TMR-cC0-C2; [6]): 4.88; 473-nm Δτ, Repeat 1 [1, 6]: -0.040 ns; 473-nm Δτ, Repeat 2 [1, 6]: -0.010 ns; 473-nm z-score (based on avg Δτ) [1, 6]: -1.36
Cc1nc(-c2ccc(OCC(C)C)c(C#N)c2)sc1C(=O)O [Febuxostat] | 0.129 ns | 0.132 ns | 8.01 | 0.070 ns | 0.043 ns | 3.18 | 0.8 | 9.6% | 0.7 | 14.6% | 12.1% | –
CCc1c(Cl)c(O)c(Cl)c(O)c1C(=O)O[C@H]1[C@H](O)[C@H](OC)[C@H](OC/C2=C\C=C\C[C@H](O)/C(C)=C/[C@H](CC)[C@@H](O[C@@H]3OC(C)(C)[C@@H](OC(=O)C(C)C)[C@H](O)[C@@H]3O)/C(C)=C/C(C)=C/C[C@@H]([C@@H](C)O)OC2=O)O[C@@H]1C [Fidaxomicin] | -0.001 ns | -0.028 ns | -0.86 | 0.057 ns | 0.084 ns | 3.98 | 10.4 | −5.2% | 1.2 | −4.3% | −0.5% | difference in effect on TMR FLT between unphosphorylated and phosphorylated TMR-cC0-C2 ([2]; from Table 3): 10.4 fold
Cc1ccc(Nc2c(F)cccc2Cl)c(CC(=O)O)c1 [Lumiracoxib] | -0.054 ns | -0.036 ns | -2.72 | 0.093 ns | 0.064 ns | 4.45 | – | – | – | – | – | effect on FLT-FRET / binding between FMAL-actin and TMR-cC0-C2 (in words) [5]: decrease
COc1ccc(CN(CCN(C)C)c2ncccn2)cc1 [Thonzylamine] | -0.034 ns | -0.382 ns | -12.66 | 0.012 ns | -0.449 ns | -12.17 | – | – | – | – | – | –
Heparin sodium | -0.052 ns | -0.051 ns | -3.09 | 0.440 ns | 0.363 ns | 22.49 | – | – | – | – | – | –
